Measurements from patent US20230303483A1, “USE OF STROBILURIN TYPE COMPOUNDS FOR COMBATING PHYTOPATHOGENIC FUNGI CONTAINING AN AMINO ACID SUBSTITUTION F129L IN THE MITOCHONDRIAL CYTOCHROME B PROTEIN CONFERRING RESISTANCE TO QO […]” (BASF SE, priority 2020, published 2023).

Columns and labels:
[1] = test system: Phakopsora pachyrhizi (strain containing the amino acid substitution F129L in the mitochondrial cytochrome b protein); assay: Use example 1: protective control of soybean rust on soybeans (PHAKPA P2), inoculation 2 days after spraying; format: in vivo; settings: % diseased leaf area on soybean, 16 ppm spray, inoculation 2 days after treatment, untreated controls usually >85 %
Outline: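 Potted soybean seedlings sprayed to run-off with compound in acetone/DMSO–Wettol–water, then inoculated 2 days later with Phakopsora pachyrhizi carrying cytochrome b F129L (Qo-inhibitor-resistant). Plants spent 24 h at ~95% RH and 20–24° C, then grew up to 14 days at 23–27° C. Rust assessed visually as % diseased leaf area.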

[2] = test system: Phakopsora pachyrhizi (strain containing the amino acid substitution F129L in the mitochondrial cytochrome b protein); assay: Use example 2: protective control of soybean rust on soybeans (PHAKPA P6), inoculation six days after spraying; format: in vivo; settings: % diseased leaf area on soybean, 16 ppm spray, inoculation six days after treatment, untreated controls usually >85 %
Outline: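 Soybean seedling leaves were sprayed to run-off with compound in acetone and/or DMSO plus Wettol emulsifier (99:1), diluted in water. Plants were kept six days at 23-27 °C, 60-80% RH before spore inoculation, then 24 hr at ~95% RH and up to 14 days in greenhouse. Read-out was visual % diseased leaf area.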

CNC(=O)/C(=N/OC)c1ccccc1CO/N=C(\C)C#Cc1ccc(Oc2ccc(F)cc2)cc1 [Example 111]
PHAKPA Disease level (%) P2 at 16 ppm [1]: 33% | PHAKPA Disease level (%) P6 at 16 ppm [2]: 23%

CNC(=O)/C(=N/OC)c1ccccc1CO/N=C(/C#Cc1ccc(Cl)cc1)COC [Example 112]
PHAKPA Disease level (%) P2 at 16 ppm [1]: 38% | PHAKPA Disease level (%) P6 at 16 ppm [2]: 25%

COC/C(C#Cc1ccc(Cl)cc1)=N\OCc1ccccc1/C(=N\OC)C(=O)OC [Example 113]
PHAKPA Disease level (%) P2 at 16 ppm [1]: 87% | PHAKPA Disease level (%) P6 at 16 ppm [2]: 77%

CO/C=C(/C(=O)OC)c1ccccc1CO/N=C(\C)C#Cc1ccc(F)cc1 [Example 114]
PHAKPA Disease level (%) P2 at 16 ppm [1]: 0% | PHAKPA Disease level (%) P6 at 16 ppm [2]: 0%

CNC(=O)/C(=N/OC)c1ccccc1CO/N=C(\C)C#Cc1ccc(Cl)cc1-c1ccc(F)cc1 [Example 115]
PHAKPA Disease level (%) P2 at 16 ppm [1]: 2% | PHAKPA Disease level (%) P6 at 16 ppm [2]: 1%

CO/N=C(/C(=O)OC)c1ccccc1CO/N=C(\C)C#Cc1ccc(Cl)cc1-c1ccc(F)cc1 [Example 118]
PHAKPA Disease level (%) P2 at 16 ppm [1]: 3% | PHAKPA Disease level (%) P6 at 16 ppm [2]: 4%

CNC(=O)/C(=N/OC)c1ccccc1CO/N=C(\C)C#Cc1c(C2CC2)cccc1C(F)(F)F [Example 119]
PHAKPA Disease level (%) P2 at 16 ppm [1]: 77% | PHAKPA Disease level (%) P6 at 16 ppm [2]: 77%

CNC(=O)/C(=N/OC)c1ccccc1CO/N=C(\C)C#Cc1ccc(OC(F)(F)F)cc1C1CC1 [Example 120]
PHAKPA Disease level (%) P2 at 16 ppm [1]: 15% | PHAKPA Disease level (%) P6 at 16 ppm [2]: 22%

CO/N=C(/C(=O)OC)c1ccccc1CO/N=C(\C)C#Cc1ccc(OC(F)(F)F)cc1C1CC1 [Example 121]
PHAKPA Disease level (%) P2 at 16 ppm [1]: 87% | PHAKPA Disease level (%) P6 at 16 ppm [2]: 53%

CO/C=C(/C(=O)OC)c1cccc(C)c1CO/N=C(\C)C#Cc1ccc(F)c(C(=O)OC)c1 [Example 122]
PHAKPA Disease level (%) P2 at 16 ppm [1]: 73% | PHAKPA Disease level (%) P6 at 16 ppm [2]: 60%

CO/N=C(/C(=O)OC)c1cccc(C)c1CO/N=C(\C)C#Cc1ccc(F)c(C(=O)OC)c1 [Example 123]
PHAKPA Disease level (%) P2 at 16 ppm [1]: 43% | PHAKPA Disease level (%) P6 at 16 ppm [2]: 37%

CO/C=C(/C(=O)OC)c1cccc(C)c1CO/N=C(\C)C#Cc1ccc(F)cc1C(=O)OC [Example 124]
PHAKPA Disease level (%) P2 at 16 ppm [1]: 14% | PHAKPA Disease level (%) P6 at 16 ppm [2]: 53%

CO/N=C(/C(=O)OC)c1cccc(C)c1CO/N=C(\C)C#Cc1ccc(F)cc1C(=O)OC [Example 125]
PHAKPA Disease level (%) P2 at 16 ppm [1]: 17% | PHAKPA Disease level (%) P6 at 16 ppm [2]: 45%

CO/N=C(/C(=O)OC)c1cccc(C)c1CO/N=C(\C)C#Cc1ccc(F)cc1C(=O)OC [Example 127]
PHAKPA Disease level (%) P2 at 16 ppm [1]: 53% | PHAKPA Disease level (%) P6 at 16 ppm [2]: 47%
